The values that follow are results of earlier work, collected in paper PMC3845828 (Clinical cancer research : an official journal of the …, 2012).

For one series, the system named is RAGE / S100P. Particulars: ref [15].
The subject of the next series is cancer cells. Particulars: pretreatment of cancer cells in vitro, experimental in vivo model; ref [8].
A further series concerns HMGB-1 binding to RAGE. As to conditions: in vitro; ref [8].

Turning to “HMGB-1-derived peptide: peptide consisting of residues 150–183 of HMGB-1 (end of the B-box and its linker to the acidic tail) (KLKEKYEKDIAAYRAKGKPDAAKKGVVKAEKSKK; UniProt P09429 150-183, looked up, fragment)”, in the series on RAGE / S100P, the “binding and activation of RAGE by S100P” value was “blocked the binding and activation of RAGE by S100P”. Besides, the “migration and metastasis of cancer cells pretreated with peptide” value with cancer cells was “successfully blocked their subsequent migration and their metastasis”. In the series with HMGB-1 binding to RAGE, the “competition with HMGB-1 binding to RAGE” value is on record as “successfully compete with HMGB-1 binding to RAGE”.
